Where two headings read alike, the source gives them in different places. No end group written: not given here.
Columns and labels:
[1] = molecular target: T1, TNFR1 (Homo sapiens, UniProt P19438); experiment: biochemical
T1 sequence (P19438 30-455): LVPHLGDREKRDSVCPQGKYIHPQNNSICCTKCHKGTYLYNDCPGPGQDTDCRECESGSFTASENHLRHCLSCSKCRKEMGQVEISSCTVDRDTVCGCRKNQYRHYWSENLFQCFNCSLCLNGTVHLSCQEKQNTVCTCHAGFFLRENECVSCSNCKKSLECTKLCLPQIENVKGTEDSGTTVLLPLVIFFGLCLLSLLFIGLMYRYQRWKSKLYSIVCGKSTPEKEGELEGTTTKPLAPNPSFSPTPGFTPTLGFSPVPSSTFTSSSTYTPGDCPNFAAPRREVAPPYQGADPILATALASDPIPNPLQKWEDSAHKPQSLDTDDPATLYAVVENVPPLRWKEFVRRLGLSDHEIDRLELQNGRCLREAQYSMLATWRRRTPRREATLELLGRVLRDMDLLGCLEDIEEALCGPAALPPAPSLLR

[2] = test system: OXZ-induced acute colitis mouse; experiment: Oxazolone-induced acute colitis mouse model; assay type: in vivo, Balb/c mice; conditions: for body weight change: 400 ug/kg/d i.p. 3 days, FIG. 13; for colon length: 3rd day after enema, FIG. 15; for MPO activity in colon tissue: FIG. 17; for serum IFN-γ level / serum IL-1β level / serum IL-6 level / serum IL-10 (anti-inflammatory factor) / serum TNF-α level: FIG. 18; for pathological changes in colon tissue, HE staining: FIG. 19; for expression of TNF-α in colon tissue sections: FIG. 20
Method: Establishment of an oxazolone-induced mouse colitis animal model: Male Balb/c mice, 6-8 weeks old, were randomly divided into 8 groups, each containing 10 mice. On the first day, the back skin of the mouse was shaved (1.5 cm×1.5 cm), and the normal group was coated with 0.15 mL of acetone/olive oil solution (acetone/olive oil volume ratio of 4:1). The model group and the SN10 group were negatively controlled. The drug and the positive control group were skin-coated with 0.15 mL of 3% (w/v) oxazolone (dissolved in acetone/olive oil solution) for skin pre-sensitization. On the 8th day, the mice were anesthetized by intraperitoneal injection of 4% chloral hydrate. The 3.51 catheter was slowly and gently inserted into the colon of the mouse about 4 cm from the anus. The normal group was injected with 0.1 mL of 50% ethanol, and the other groups were injected with […]. 1% (w/v) oxazolone (dissolved in 50% ethanol), slowly pull out the catheter, keep the mouse vertical, head down position for 60 s, so that the drug solution is fully left in the intestinal lumen. After enema, the normal group and the model group were given intraperitoneal injection of 0.1 mL of normal saline. […] The injection dose was 400 ug/kg/d, and the positive drug group was given 0.1 mL sulfasalazine and intravesical injection of infliximab (dissolved in normal saline) at doses of 400 mg/kg/d and 5 mg/respectively. Each kg/d was administered continuously for 3 days.
The body weight changes, stool characteristics and blood in the stool were observed and recorded daily after enema.
On the 3rd day after enema, the mice were sacrificed by cervical dislocation. The colon and spleen were removed immediately. The length of the colon was measured.
Part of the diseased colon tissue was excised and weighed. MPO) activity in mouse colon tissue was detected using a myeloperoxidase (MPO) assay kit (Nanjing Institute of Bioengineering). MPO is a functional marker and activation marker for neutrophils and is involved in many processes that regulate inflammatory responses. Excessive MPO activity catalyzes the reaction to produce excess oxidants, causing local oxidative stress and oxidative tissue damage.
The colon of the mouse were washed with saline, fixed in 10% formalin. Tissue sections were prepared and stained with HE.

[3] = molecular target: T2, TNFR2 (Homo sapiens, UniProt P20333); experiment: MST binding of Hydrostatin-SN10 to TNFR2
T2 sequence (P20333 23-461): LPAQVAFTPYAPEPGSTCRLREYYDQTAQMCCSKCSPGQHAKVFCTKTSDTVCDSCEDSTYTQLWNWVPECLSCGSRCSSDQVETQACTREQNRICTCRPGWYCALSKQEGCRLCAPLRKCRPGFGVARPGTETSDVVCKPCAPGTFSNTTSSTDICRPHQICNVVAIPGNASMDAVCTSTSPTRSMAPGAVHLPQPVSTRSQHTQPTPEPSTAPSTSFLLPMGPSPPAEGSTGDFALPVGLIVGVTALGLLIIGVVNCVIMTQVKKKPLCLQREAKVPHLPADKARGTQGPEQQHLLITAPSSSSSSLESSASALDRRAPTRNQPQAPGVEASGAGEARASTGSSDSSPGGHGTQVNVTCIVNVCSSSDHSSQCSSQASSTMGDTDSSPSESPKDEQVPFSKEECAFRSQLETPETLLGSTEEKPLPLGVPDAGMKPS

[4] = molecular target: T3, TNF-α-TNFR1 binding (Homo sapiens, UniProt P19438); experiment: BIAcore (SPR) competitive inhibition of TNF-α-TNFR1 binding
T3 sequence (P19438 30-211 limits assumed): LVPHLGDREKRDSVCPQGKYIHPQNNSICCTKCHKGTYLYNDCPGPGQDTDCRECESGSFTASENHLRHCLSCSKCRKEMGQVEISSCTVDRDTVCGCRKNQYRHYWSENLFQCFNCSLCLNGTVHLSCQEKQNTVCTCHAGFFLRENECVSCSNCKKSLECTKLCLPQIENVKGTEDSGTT

[5] = molecular target: T1, TNFR1; experiment: biochemical; remark: listed apart in the source
[6] = Isoelectric point of Hydrostatin-SN10; assay type: physicochemical
[7] = molecular target: T4, TNFR1-TNF-α binding (Homo sapiens, UniProt P19438); experiment: MST competitive inhibition of TNFR1-TNF-α binding
T4 sequence (P19438 30-211 limits assumed): T3 sequence (P19438 30-211 limits assumed)
Description: On-machine detection, software fitting to find the KD value. The changes of TNF-α saturation concentration, response amplitude and KD value before and after Hydrostatin-SN10 were compared.

[8] = molecular target: T5, TNF-α (Homo sapiens, UniProt P01375); experiment: MST binding of Hydrostatin-SN10 to TNF-α; conditions: fluorescently labeled TNF-α
[9] = test system: DSS-induced acute colitis mouse; experiment: Dextran sulfate sodium-induced acute colitis mouse model; assay type: in vivo, Balb/c mice; conditions: for body weight change: DSS 2.5% 7 days, 400 μg/kg/d intraperitoneal, FIG. 5; for myeloperoxidase (MPO) activity in colon tissue: FIG. 9; for serum IFN-γ content / serum IL-6 content / serum IL-10 (anti-inflammatory factor) / serum IL-β content / serum TNF-α content: FIG. 10; for colonic lesions, HE staining: FIG. 11; for TNF-α expressed in colon tissue sections: FIG. 12; for colon length: day 7, FIG. 7
Method: The specific implementation steps are as follows: Balb/c mice 6-8 weeks old were randomly divided into 8 groups, each group containing 10 mice.
According to Table 2, the disease activity index (DAI) score was obtained. […] Seven days after the model was established, the mouse were sacrificed by cervical dislocation, and the entire colon and spleen were removed. […] The spleen weight was measured and the spleen index was calculated.

[10] = Plasma half-life in SD rats (ELISA); assay type: in vivo
Method: The assay was performed according to the manufacturer's instructions using an ELISA kit purchased from Genzyme. Serum samples were collected from the […] with heparinized 50 μL capillaries, and blood samples were collected at 1 min, 2 min, 3 min, 5 min, 10 min, 15 min, 20 min, 30 min, 45 min, 1 h, 2 h, 4 h, 6 h, 8 h after treatment. After standing for 2 h, the sample was centrifuged, and the obtained supernatant was stored at −20° C. for testing.

[11] = molecular target: T5, TNF-α; experiment: BIAcore (SPR) binding of Hydrostatin-SN10 to TNF-α

Substance	overall treatment effect in oxazolone-induced colitis ([2]; 400 ug/kg/d i.p.)	body weight change [2]	colon length ([2]; 400 ug/kg/d i.p.)	MPO activity in colon tissue ([2]; 400 ug/kg/d i.p.)	serum IFN-γ level ([2]; 400 ug/kg/d i.p.)	serum IL-1β level ([2]; 400 ug/kg/d i.p.)	serum IL-6 level ([2]; 400 ug/kg/d i.p.)	serum IL-10 (anti-inflammatory factor) ([2]; 400 ug/kg/d i.p.)	serum TNF-α level ([2]; 400 ug/kg/d i.p.)	pathological changes in colon tissue, HE staining ([2]; 400 ug/kg/d i.p.)	expression of TNF-α in colon tissue sections ([2]; 400 ug/kg/d i.p.)	body weight change [9]	overall treatment effect in DSS-induced colitis ([9]; DSS, 400 μg/kg/d i.p.)	myeloperoxidase (MPO) activity in colon tissue ([9]; DSS, 400 μg/kg/d i.p.)	serum IFN-γ content ([9]; DSS, 400 μg/kg/d i.p.)	serum IL-6 content ([9]; DSS, 400 μg/kg/d i.p.)	serum IL-10 (anti-inflammatory factor) ([9]; DSS, 400 μg/kg/d i.p.)	serum IL-β content ([9]; DSS, 400 μg/kg/d i.p.)	serum TNF-α content ([9]; DSS, 400 μg/kg/d i.p.)	colonic lesions, HE staining ([9]; DSS, 400 μg/kg/d i.p.)	further results
H-DEQHLETELH [Hydrostatin-SN10]	effective in the treatment of oxazolone-induced mouse colitis animal model	significantly reduced the weight loss	significantly improved colon length	effective in inhibiting the increase in MPO activity	significantly reduced	significantly reduced	significantly reduced	significantly increased	significantly reduced	significantly attenuated pathological changes in mouse colon tissue	significantly reduced	effective in inhibiting the weight loss	effective in treating DSS-induced colitis animal models	significantly reduce MPO activity	significantly decreased	significantly decreased	significantly increased	significantly decreased	significantly decreased	effectively inhibit colonic lesions caused by DSS	Kd [1]: ~2800 nM; disease activity index (DAI) score ([2]; 400 ug/kg/d i.p., FIG. 14): effectively alleviate the symptoms of diarrhea and blood in the stool; spleen index ([2]; 400 ug/kg/d i.p., FIG. 16): significantly down-regulate the mouse spleen index; binding to TNFR2 ([3]; fluorescently labeled TNFR2): not binding; binding to TNFR2 ([3]; fluorescently labeled TNFR2, listed as SN10): no binding; competitive inhibition of the interaction of TNFR1 with TNF-α [4]: competitively inhibits; Kd [5]: 2800 nM; isoelectric point [6]: 4.39; competitive inhibition of the interaction of TNFR1 and TNF-α [7]: competitively inhibit; binding to TNF-α [8]: not binding; binding to TNF-α ([8]; listed as SN10): no binding; disease activity index (DAI) score ([9]; DSS, 400 μg/kg/d i.p., FIG. 6): effectively alleviate the symptoms of diarrhea and blood in the stool; spleen index ([9]; DSS, 400 μg/kg/d i.p., FIG. 8): effectively inhibit spleen changes caused by colitis; TNF-α expressed in colon tissue sections ([9]; DSS, 400 μg/kg/d i.p.): alleviate the degree of inflammation in the colon tissue; colon length ([9]; DSS, 400 μg/kg/d i.p.): significantly improved the colon length; half-life ([10]; rat, plasma, ELISA): 2.18 h; binding to TNF-α [11]: does not bind; binding to TNF-α ([11]; listed as SN10): no binding
PEG-SN10: Hydrostatin-SN10 modified with mPEG2000; carboxyl group of mPEG2000 covalently linked to free amino group of N-terminal aspartic acid (mPEG2000-DEQHLETELH)	effective in the treatment of oxazolone-induced mouse colitis animal model	significantly reduced the weight loss	significantly improved colon length	effective in inhibiting the increase in MPO activity	significantly reduced	significantly reduced	significantly reduced	significantly increased	significantly reduced	significantly attenuated pathological changes in mouse colon tissue	significantly reduced	effective in inhibiting the weight loss	effective in treating DSS-induced colitis animal models	significantly reduce MPO activity	significantly decreased	significantly decreased	significantly increased	significantly decreased	significantly decreased	effectively inhibit colonic lesions caused by DSS	TNF-α expressed in colon tissue sections ([9]; DSS, 400 μg/kg/d i.p.): alleviate the degree of inflammation in the colon tissue; colon length ([9]; DSS, 400 μg/kg/d i.p.): significantly improved the colon length; plasma half-life compared with Hydrostatin-SN10 ([10]; after PEG modification): longer plasma half-life

Reference: patent publication US20200277355A1 (GUILIN EIGHT PLUS ONE PHARMACEUTICAL CO., LTD., priority 2017, published 2020)
